From publication doi:10.1101/2021.07.20.453049v1, “Integration of the cyanophage-encoded phosphate binding protein into the cyanobacterial phosphate uptake system” (biorxiv, 2021)

How the values were obtained:
[1] = molecular target: phage PstS (cyanophage P-SSM2 PstS) (Prochlorococcus phage P-SSM2, UniProt Q58MA7); assay: biochemical
[2] = molecular target: T1, host PstS (Prochlorococcus NATL2A PstS) (Prochlorococcus marinus, UniProt Q46KP5); details: 20 mM Tris-HCl, 200 mM NaCl, pH 7.5, room temperature, 24 h; trace 32P tracer with cold NaH2PO4
T1 construct: gene PMN2A_0441
T1 sequence (Q46KP5 25-323): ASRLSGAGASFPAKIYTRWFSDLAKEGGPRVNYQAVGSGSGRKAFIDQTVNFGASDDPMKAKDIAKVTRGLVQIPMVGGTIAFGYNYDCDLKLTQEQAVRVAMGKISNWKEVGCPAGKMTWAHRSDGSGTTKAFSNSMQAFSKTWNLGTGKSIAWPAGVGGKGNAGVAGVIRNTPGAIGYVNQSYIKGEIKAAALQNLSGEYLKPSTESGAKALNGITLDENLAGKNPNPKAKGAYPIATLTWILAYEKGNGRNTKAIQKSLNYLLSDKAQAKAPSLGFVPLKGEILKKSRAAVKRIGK

[3] = molecular target: T2, Syn19 PstS (group II cyanophage PstS) (Synechococcus phage Syn19, UniProt E3SQC4); format: binding; details: crystallised with 5 mM sodium phosphate, pH 7.5; 18% PEG 3350, 0.2 M sodium formate
T2 construct: recombinant, E. coli BL21(DE3), pET-22b, C-terminal His6 tag
T2 sequence (E3SQC4 19-326): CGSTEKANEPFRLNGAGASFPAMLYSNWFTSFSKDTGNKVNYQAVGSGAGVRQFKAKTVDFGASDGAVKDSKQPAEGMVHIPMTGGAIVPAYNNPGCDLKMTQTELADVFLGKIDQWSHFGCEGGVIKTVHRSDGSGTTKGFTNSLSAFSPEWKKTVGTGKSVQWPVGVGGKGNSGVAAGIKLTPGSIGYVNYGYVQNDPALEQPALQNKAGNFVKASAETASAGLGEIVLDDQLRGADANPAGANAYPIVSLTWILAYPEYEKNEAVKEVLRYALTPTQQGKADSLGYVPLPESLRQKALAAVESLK

phage PstS (cyanophage P-SSM2 PstS), sequence (Q58MA7 21-321): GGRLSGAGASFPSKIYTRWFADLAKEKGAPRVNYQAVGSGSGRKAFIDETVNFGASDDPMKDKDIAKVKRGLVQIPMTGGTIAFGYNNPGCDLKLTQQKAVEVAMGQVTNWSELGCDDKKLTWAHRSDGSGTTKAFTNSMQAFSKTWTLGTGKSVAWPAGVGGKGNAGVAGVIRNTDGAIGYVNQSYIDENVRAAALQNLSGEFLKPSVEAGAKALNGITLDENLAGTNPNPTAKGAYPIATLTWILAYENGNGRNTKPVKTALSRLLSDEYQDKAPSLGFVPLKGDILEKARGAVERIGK

Kd [1]: 1390 ± 220 nM
Kd [2]: 820 ± 440 nM
SMILES: O=P(O)(O)O [phosphate]
X-ray crystal structure, 1.70 Å [3]: The PstS structure of cyanophage Syn19 in complex with PO4.
